From patent US12115152B2, “Pan-RAF kinase inhibitor and use thereof” (HEFEI INSTITUTES OF PHYSICAL SCIENCE, CHINESE ACADEMY OF …, priority 2019, dated 2024) come the findings set out here.

Assay type in all cases: cell-based
The nature of experiment [1]: Effect on proliferation of cells, Cell Titer-Glo, 72 hours. The conditions noted are these: Mus musculus, BaF3 cells. On the procedure:
The compounds of the present invention were tested for their effect on growth of cancer cells (Table 2), to further evaluate the compounds herein for their inhibitory effect on proliferation of cancer cells and their selectivity in inhibiting proliferation of cancer cells. […]
(§1) In the example, solutions of the test compound in DMSO at different concentrations (0.000508 μM, 0.00152 μM, 0.00457 μM, 0.0137 μM, 0.0411 μM, 0.123 μM, 0.370 μM, 1.11 μM, 3.33 μM, 10 μM) was added to the above cells respectively. The cells were incubated for 72 hours. The number of viable cells was detected with a Cell Titer-Glo (Promega, USA) Cell Viability Assay Kit by quantifying the ATP in viable cells. The values of GI50 (unit) of the compounds of the present invention against each of the test cells were determined.
(Cellular ATP, detected with luciferase, serves as a proxy for viable cell number.)

In experiment [2] the test system is colorectal cancer cell COLO205 (expressing BRAF-V600E mutant kinase). Put plainly: Effect on proliferation of cancer cells, Cell Titer-Glo, 72 hours. Conditions: Homo sapiens, COLO 205. As to the method: (§2) The compounds of the present invention were tested for their effect on growth of cancer cells (Table 2), to further evaluate the compounds herein for their inhibitory effect on proliferation of cancer cells and their selectivity in inhibiting proliferation of cancer cells.
(§3) The cells were incubated for 72 hours. The number of viable cells was detected with a Cell Titer-Glo (Promega, USA) Cell Viability Assay Kit by quantifying the ATP in viable cells. The values of GI50 (unit) of the compounds of the present invention against each of the test cells were determined.

Experiment [3] concerns melanoma cell A375 (expressing BRAF-V600E mutant kinase). The experiment is described as above. Conditions: Homo sapiens, A-375. As to the method:
as §2, §3

The test system of experiment [4] is mouse BaF3-FL-BRAF-V600E (stably expressing full-length BRAF-V600E mutant kinase). The description is as above. As to the method:
as §2, §3

Experiment [5] deals with human acute leukemia cell NB4 (expressing KRAS-A18D mutant kinase). The experiment is described as above. Conditions: NB-4. On the procedure: as §2
(§4) The above-mentioned BaF3-FL-BRAF-V600E mutant cell line was constructed by the method as follows. The sequence of human full-length BRAF-V600E mutant kinase region was amplified by PCR, inserted into a MSCV-Puro vector (purchased from Clontech), and stably transfected into mouse BaF3 cells by the retroviral method, and the growth factor IL-3 was removed. Eventually, a cell line dependent on a full-length BRAF-V600E protein having various mutation transferred was obtained.
as §1

Experiment [6] relates to human acute leukemia cell OCI-AML-3 (expressing NRAS-Q61L mutant kinase). The experiment is described as above. Conditions: OCI-AML-3 cells. As to the method:
as §2, §4, §1

As a reminder, the GI50 is the concentration giving 50% growth inhibition.

Each structure is given as a SMILES string. Where only a bound is given, the exact number is not on record here.

Consider `COCCOc1ccncc1-c1cnn(-c2cc(NC(=O)c3cccc(C(C)(C)C#N)c3)ccc2C)c1` [Example 159, 3-(2-cyanoprop-2-yl)-N-(3-(4-(4-(2-methoxyethoxy)pyrid-3-yl)-1H-pyrazol-1-yl)-4-methylphenyl)benzamide], for which the concentration for 50% growth inhibition (GI50) in experiment [1] is 5200 nM; in experiment [2], 36 nM; in experiment [3] it was 22 nM; in experiment [4], 6.6 nM; in experiment [5], 160 nM; in experiment [6] it was 23 nM.

Regarding `Cc1ccc(NC(=O)c2cccc(C(C)(C)C#N)c2)cc1-n1cc(-c2cnccc2OCC2CCOCC2)cn1` [Example 72, 3-(2-cyanoprop-2-yl)-N-(4-methyl-3-(4-(4-((tetrahydro-2H-pyran-4-yl)methoxy)pyrid-3-yl)-1H-pyrazol-1-yl)phenyl)benzamide], the GI50 was determined as 5800 nM in experiment [1], 100 nM in experiment [2], 34 nM in experiment [3] and 5.6 nM in experiment [4].

For the molecule `Cc1ccc(NC(=O)c2cccc(C(C)(C)C#N)c2)cc1-n1cc(-c2cncc(-c3cccnc3)c2)cn1` [Example 3, N-(3-(4-([3,3′-bipyridyl]-5-yl)-1H-pyrazol-1-yl)-4-methylphenyl)-3-(2-cyanoprop-2-yl)benzamide], the GI50 in experiment [1] is 1000 nM; in experiment [2], 10 nM; in experiment [3] it was 21 nM; in experiment [4] it was below 0.3 nM.

Regarding `Cc1ccc(NC(=O)c2cccc(C(C)(C)C#N)c2)cc1-n1cc(-c2cncc(OCCCN3CCOCC3)c2)cn1` [Example 47, 3-(2-cyanoprop-2-yl)-N-(4-methyl-3-(4-(5-(3-morpholinopropoxy)pyrid-3-yl)-1H-pyrazol-1-yl)phenyl)benzamide], the concentration for 50% growth inhibition (GI50) in experiment [1] amounted to 600 nM; in experiment [2], 15 nM; in experiment [3], 17 nM; in experiment [4], 1.3 nM.

Regarding `Cc1ccc(NC(=O)c2cccc(C(C)(C)C#N)c2)cc1-n1cc(-c2cnccc2OC2CCOC2)cn1` (stereo not shown) [Example 68, 3-(2-cyanoprop-2-yl)-N-(4-methyl-3-(4-(4-((tetrahydrofuran-3-yl)oxy)pyrid-3-yl)-1H-pyrazol-1-yl)phenyl)benzamide], the GI50 in experiment [1] worked out at 1800 nM; in experiment [2] it was 66 nM; in experiment [3] it was 27 nM; in experiment [4] it was 4.3 nM.

Take `Cc1ccc(NC(=O)c2cccc(Cl)c2)cc1-n1cc(-c2cccnc2)cn1` [compound 2, 3-chloro-N-(4-methyl-3-(4-(pyrid-3-yl)-1H-pyrazol-1-yl)phenyl)benzamide, reference compound]: the GI50 in experiment [1] came out at 9300 nM; in experiment [2] it was 3300 nM; in experiment [3], 1600 nM; in experiment [4] it was 240 nM.

`Cc1ccc(NC(=O)c2cccc(C(C)(C)C#N)c2)cc1-n1cc(-c2cnccc2OCCCO)cn1` [Example 161, 3-(2-cyanoprop-2-yl)-N-(3-(4-(4-(3-hydorxypropoxy)pyrid-3-yl)-1H-pyrazol-1-yl)-4-methylphenyl)benzamide]: the concentration for 50% growth inhibition (GI50) in experiment [1] was found to be 3600 nM; in experiment [2], 55 nM; in experiment [3], 14 nM; in experiment [4], 2.3 nM; in experiment [5], 95 nM; in experiment [6], 12 nM.

As to `Cc1ccc(NC(=O)Cc2cccc(C(F)(F)F)c2)cc1-n1cc(-c2cncc(-c3ccncc3)c2)cn1` [Example 71, N-(3-(4-([3,4′-bipyrid]-5-yl)-1H-pyrazol-1-yl)-4-methylphenyl)-2-(3-(trifluoromethyl)phenyl)acetamide], the 50% growth inhibitory concentration (GI50) in experiment [1] was determined as 1100 nM; in experiment [2] it was 56 nM; in experiment [3], 79 nM; in experiment [4], 28 nM.

In the case of `Cc1ccc(NC(=O)c2ccc(C)c(C(F)(F)F)c2)cc1-n1cc(-c2cncc(-c3ccncc3)c2)cn1` [Example 7, N-(3-(4-([3,4′-bipyridyl]-5-yl)-1H-pyrazol-1-yl)-4-methylphenyl)-4-methyl-3-(trifluoromethyl)benzamide], the GI50 was 2400 nM in experiment [1], 150 nM in experiment [2], 86 nM in experiment [3] and 12 nM in experiment [4].

On to `Cc1ccc(NC(=O)c2cccc(C(F)(F)F)c2)cc1-n1cc(-c2cncc(N3CCNCC3)c2)cn1` [Example 164, N-(4-methyl-3-(4-(5-(piperizan-1-yl)pyrid-3-yl)-1H-pyrazol-1-yl)phenyl)-3-(trifluoromethyl)benzamide], for which the GI50 in experiment [1] turned out to be 1600 nM; in experiment [2], 71 nM; in experiment [3], 120 nM; in experiment [4] it was 4 nM; in experiment [5] it was 35 nM; in experiment [6] it was 9.1 nM.

Take `Cc1ccc(NC(=O)c2cccc(C(F)(F)F)c2)cc1-n1cc(-c2cnccc2OC2COC2)cn1` [Example 82, N-(4-methyl-3-(4-(4-(oxetan-3-yloxy)pyrid-3-yl)-1H-pyrazol-1-yl)phenyl)-3-(trifluoromethyl)benzamide]: the GI50 in experiment [1] is 3200 nM; in experiment [2], 83 nM; in experiment [3], 97 nM; in experiment [4], 4 nM.

For `Cc1ccc(NC(=O)Cc2cccc(C(F)(F)F)c2)cc1-n1cc(-c2cncc(OCCCN3CCOCC3)c2)cn1` [Example 49, N-(4-methyl-3-(4-(5-(3-morpholinopropoxy)pyrid-3-yl)-1H-pyrazol-1-yl)phenyl)-2-(3-(trifluoromethyl)phenyl)acetamide], the concentration for 50% growth inhibition (GI50) was 500 nM in experiment [1], 52 nM in experiment [2], 41 nM in experiment [3] and 7.2 nM in experiment [4].

Take `Cc1ccc(NC(=O)c2cccc(C(F)(F)F)c2)cc1-n1cc(-c2cncc(OCCCN3CCOCC3)c2)cn1` [Example 48, N-(4-methyl-3-(4-(5-(3-morpholinopropoxy)pyrid-3-yl)-1H-pyrazol-1-yl)phenyl)-3-(trifluoromethyl)benzamide]: the GI50 in experiment [1] was found to be 520 nM; in experiment [2], 32 nM; in experiment [3], 14 nM; in experiment [4], 4.1 nM.

In the case of `Cc1ccc(NC(=O)c2cccc(C(C)(C)C#N)c2)cc1-n1cc(-c2cncc(-c3ccncc3)c2)cn1` [Example 5, N-(3-(4-([3,4′-bipyridyl]-5-yl)-1H-pyrazol-1-yl)-4-methylphenyl)-3-(2-cyanoprop-2-yl)benzamide], the GI50 in experiment [1] turned out to be 510 nM; in experiment [2], 17 nM; in experiment [3], 19 nM; in experiment [4] it was 1.9 nM.

`Cc1ccc(NC(=O)c2ccc(CN3CCN(C)CC3)c(C(F)(F)F)c2)cc1-n1cc(-c2cncc(N3CCOCC3)c2)cn1` [Example 12, N-(4-methyl-3-(4-(5-morpholinopyrid-3-yl)-1H-pyrazol-1-yl)phenyl)-4-((4-methylpiperazin-1-yl)methyl)-3-(trifluoromethyl)benzamide]: the GI50 in experiment [1] was determined as 210 nM; in experiment [2], 45 nM; in experiment [3], 97 nM; in experiment [4] it was 7.4 nM.

With `Cc1ccc(NC(=O)c2ccc(CN3CCN(C)CC3)c(C(F)(F)F)c2)cc1-n1cc(-c2cncc(-c3ccncc3)c2)cn1` [Example 8, N-(3-(4-([3,4′-bipyridyl]-5-yl)-1H-pyrazol-1-yl)-4-methylphenyl)-4-((4-methylpiperazin-1-yl)methyl)-3-(trifluoromethyl)benzamide], the 50% growth inhibitory concentration (GI50) in experiment [1] is 310 nM; in experiment [2] it was 28 nM; in experiment [3] it was 27 nM; in experiment [4], 10 nM.

With `Cc1ccc(NC(=O)c2cccc(C(C)(C)C#N)c2)cc1-n1cc(-c2cnccc2OC2COC2)cn1` [Example 79, 3-(2-cyanoprop-2-yl)-N-(4-methyl-3-(4-(4-(oxetan-3-yloxy)pyrid-3-yl)-1H-pyrazol-1-yl)phenyl)benzamide], the concentration for 50% growth inhibition (GI50) in experiment [1] was 4800 nM; in experiment [2], 57 nM; in experiment [3], 61 nM; in experiment [4], below 0.3 nM.

Regarding `Cc1ccc(NC(=O)c2cccc(C(F)(F)F)c2)cc1-n1cc(-c2cncc(OCC3CCOC3)c2)cn1` (stereo not shown) [Example 66, N-(4-methyl-3-(4-(5-((tetrahydrofuran-3-yl)methoxy)pyrid-3-yl)-1H-pyrazol-1-yl)phenyl)-3-(trifluoromethyl)benzamide], the GI50 in experiment [1] was found to be 3000 nM; in experiment [2], 230 nM; in experiment [3] it was 71 nM; in experiment [4], 18 nM.

Consider `Cc1ccc(NC(=O)c2cccc(C(F)(F)F)c2)cc1-n1cc(-c2cnccc2OC2CCOC2)cn1` (stereo not shown) [Example 69, N-(4-methyl-3-(4-(4-((tetrahydrofuran-3-yl)oxy)pyrid-3-yl)-1H-pyrazol-1-yl)phenyl)-3-(trifluoromethyl)benzamide], for which the GI50 in experiment [1] was 1200 nM; in experiment [2], 61 nM; in experiment [3], 35 nM; in experiment [4], 16 nM.
